Columns and labels:
Assay type in all cases: functional
Pyricularia oryzae [1] = assay: Fungicidal activity against Magnaporthe oryzae Cav. race 003 assessed as rice blast disease control at 500 ppm treated 24 hr before inoculation by preventive manner
Botrytis cinerea [2] = assay: Fungicidal activity against Botryotinia fuckeliana assessed as cucumber gray mold disease control at 125 ppm treated 24 hr before inoculation by preventive manner
Podosphaera fuliginea [3] = assay: Fungicidal activity against Podosphaera fuliginea assessed as cucumber powdery mildew disease control at 31.3 ppm treated 24 hr before inoculation by preventive manner
[4] = system: Pseudoperonospora cubensis; assay: Fungicidal activity against Pseudoperonospora cubensis assessed as cucumber downy mildew disease control at 125 ppm foliar application 24 hr after inoculation by curative manner
[5] = system: Pseudoperonospora cubensis; assay: Fungicidal activity against Pseudoperonospora cubensis assessed as cucumber downy mildew disease control at 0.5 ppm foliar application 24 hr before inoculation onto the abaxial(treated) surface of leaf by preventive manner
[6] = system: Pseudoperonospora cubensis; assay: Fungicidal activity against Pseudoperonospora cubensis assessed as cucumber downy mildew disease control at 2 ppm foliar application 24 hr before inoculation onto the abaxial(treated) surface of leaf by preventive manner
[7] = system: Pseudoperonospora cubensis; assay: Fungicidal activity against Pseudoperonospora cubensis assessed as cucumber downy mildew disease control at 7.8 ppm foliar application 24 hr before inoculation onto the abaxial(treated) surface of leaf by preventive manner
[8] = system: Pseudoperonospora cubensis; assay: Fungicidal activity against Pseudoperonospora cubensis assessed as cucumber downy mildew disease control at 31.3 ppm foliar application 24 hr before inoculation onto the abaxial(treated) surface of leaf by preventive manner
[9] = system: Pseudoperonospora cubensis; assay: Fungicidal activity against Pseudoperonospora cubensis assessed as cucumber downy mildew disease control at 125 ppm foliar application 24 hr before inoculation onto the abaxial(treated) surface of leaf by preventive manner
[10] = system: Pseudoperonospora cubensis; assay: Fungicidal activity against Pseudoperonospora cubensis assessed as cucumber downy mildew disease control at 0.5 ppm foliar application 24 hr before inoculation onto the adaxial(treated) surface of leaf by preventive manner
[11] = system: Pseudoperonospora cubensis; assay: Fungicidal activity against Pseudoperonospora cubensis assessed as cucumber downy mildew disease control at 2 ppm foliar application 24 hr before inoculation onto the adaxial(treated) surface of leaf by preventive manner
[12] = system: Pseudoperonospora cubensis; assay: Fungicidal activity against Pseudoperonospora cubensis assessed as cucumber downy mildew disease control at 7.8 ppm foliar application 24 hr before inoculation onto the adaxial(treated) surface of leaf by preventive manner
[13] = system: Pseudoperonospora cubensis; assay: Fungicidal activity against Pseudoperonospora cubensis assessed as cucumber downy mildew disease control at 31.3 ppm foliar application 24 hr before inoculation onto the adaxial(treated) surface of leaf by preventive manner
[14] = system: Pseudoperonospora cubensis; assay: Fungicidal activity against Pseudoperonospora cubensis assessed as cucumber downy mildew disease control at 125 ppm foliar application 24 hr before inoculation onto the adaxial(treated) surface of leaf by preventive manner
[15] = system: Pseudoperonospora cubensis; assay: Fungicidal activity against Pseudoperonospora cubensis assessed as cucumber downy mildew disease control at 0.5 ppm foliar application 24 hr after inoculation by curative manner
[16] = system: Pseudoperonospora cubensis; assay: Fungicidal activity against Pseudoperonospora cubensis assessed as cucumber downy mildew disease control at 2 ppm foliar application 24 hr after inoculation by curative manner
[17] = system: Pseudoperonospora cubensis; assay: Fungicidal activity against Pseudoperonospora cubensis assessed as cucumber downy mildew disease control at 7.8 ppm foliar application 24 hr after inoculation by curative manner
[18] = system: Pseudoperonospora cubensis; assay: Fungicidal activity against Pseudoperonospora cubensis assessed as cucumber downy mildew disease control at 31.3 ppm foliar application 24 hr after inoculation by curative manner
Botrytis cinerea [19] = assay: Fungicidal activity against Botryotinia fuckeliana assessed as cucumber gray mold disease control at 2 ppm foliar application 24 hr after inoculation by curative manner
Botrytis cinerea [20] = assay: Fungicidal activity against Botryotinia fuckeliana assessed as cucumber gray mold disease control at 7.8 ppm foliar application 24 hr after inoculation by curative manner
Botrytis cinerea [21] = assay: Fungicidal activity against Botryotinia fuckeliana assessed as cucumber gray mold disease control at 31.3 ppm foliar application 24 hr after inoculation by curative manner
Botrytis cinerea [22] = assay: Fungicidal activity against Botryotinia fuckeliana assessed as cucumber gray mold disease control at 125 ppm foliar application 24 hr after inoculation by curative manner
Botrytis cinerea [23] = assay: Fungicidal activity against Botryotinia fuckeliana assessed as cucumber gray mold disease control at 2 ppm foliar application 24 hr before inoculation by preventive manner
Botrytis cinerea [24] = assay: Fungicidal activity against Botryotinia fuckeliana assessed as cucumber gray mold disease control at 7.8 ppm foliar application 24 hr before inoculation by preventive manner
Botrytis cinerea [25] = assay: Fungicidal activity against Botryotinia fuckeliana assessed as cucumber gray mold disease control at 31.3 ppm foliar application 24 hr before inoculation by preventive manner
Botrytis cinerea [26] = assay: Fungicidal activity against Botryotinia fuckeliana assessed as cucumber gray mold disease control at 125 ppm foliar application 24 hr before inoculation by preventive manner
Podosphaera fuliginea [27] = assay: Fungicidal activity against Podosphaera fuliginea assessed as cucumber powdery mildew control at 0.125 ppm foliar application 24 hr after inoculation by curative manner
Podosphaera fuliginea [28] = assay: Fungicidal activity against Podosphaera fuliginea assessed as cucumber powdery mildew control at 0.5 ppm foliar application 24 hr after inoculation by curative manner
Podosphaera fuliginea [29] = assay: Fungicidal activity against Podosphaera fuliginea assessed as cucumber powdery mildew control at 2 ppm foliar application 24 hr after inoculation by curative manner
Blumeria graminis [30] = assay: Fungicidal activity against Blumeria graminis f. sp. tritici assessed as wheat powdery mildew disease control at 2 ppm foliar application for 24 hr after inoculation by curative manner
Blumeria graminis [31] = assay: Fungicidal activity against Blumeria graminis f. sp. tritici assessed as wheat powdery mildew disease control at 7.8 ppm foliar application for 24 hr after inoculation by curative manner
Podosphaera fuliginea [32] = assay: Fungicidal activity against Podosphaera fuliginea assessed as cucumber powdery mildew control at 7.8 ppm foliar application 24 hr after inoculation by curative manner
Podosphaera fuliginea [33] = assay: Fungicidal activity against Podosphaera fuliginea assessed as cucumber powdery mildew control at 0.125 ppm foliar application 24 hr before inoculation by preventive manner
Podosphaera fuliginea [34] = assay: Fungicidal activity against Podosphaera fuliginea assessed as cucumber powdery mildew control at 0.5 ppm foliar application 24 hr before inoculation by preventive manner
Podosphaera fuliginea [35] = assay: Fungicidal activity against Podosphaera fuliginea assessed as cucumber powdery mildew control at 2 ppm foliar application 24 hr before inoculation by preventive manner
Podosphaera fuliginea [36] = assay: Fungicidal activity against Podosphaera fuliginea assessed as cucumber powdery mildew control at 7.8 ppm foliar application 24 hr before inoculation by preventive manner
Blumeria graminis [37] = assay: Fungicidal activity against Blumeria graminis f. sp. tritici assessed as wheat powdery mildew disease control at 31.3 ppm foliar application for 24 hr after inoculation by curative manner
Blumeria graminis [38] = assay: Fungicidal activity against Blumeria graminis f. sp. tritici assessed as wheat powdery mildew disease control at 125 ppm foliar application for 24 hr after inoculation by curative manner
Blumeria graminis [39] = assay: Fungicidal activity against Blumeria graminis f. sp. tritici assessed as wheat powdery mildew disease control at 2 ppm foliar application for 24 hr before inoculation by preventive manner
Blumeria graminis [40] = assay: Fungicidal activity against Blumeria graminis f. sp. tritici assessed as wheat powdery mildew disease control at 7.8 ppm foliar application for 24 hr before inoculation by preventive manner
Blumeria graminis [41] = assay: Fungicidal activity against Blumeria graminis f. sp. tritici assessed as wheat powdery mildew disease control at 31.3 ppm foliar application for 24 hr before inoculation by preventive manner
Blumeria graminis [42] = assay: Fungicidal activity against Blumeria graminis f. sp. tritici assessed as wheat powdery mildew disease control at 125 ppm foliar application for 24 hr before inoculation by preventive manner
Thanatephorus cucumeris [43] = assay: Fungicidal activity against Thanatephorus cucumeris assessed as rice sheath blight disease control at 2 ppm foliar application for 24 hr after inoculation by curative manner
Thanatephorus cucumeris [44] = assay: Fungicidal activity against Thanatephorus cucumeris assessed as rice sheath blight disease control at 7.8 ppm foliar application for 24 hr after inoculation by curative manner
Thanatephorus cucumeris [45] = assay: Fungicidal activity against Thanatephorus cucumeris assessed as rice sheath blight disease control at 31.3 ppm foliar application for 24 hr after inoculation by curative manner
Thanatephorus cucumeris [46] = assay: Fungicidal activity against Thanatephorus cucumeris assessed as rice sheath blight disease control at 125 ppm foliar application for 24 hr after inoculation by curative manner
Thanatephorus cucumeris [47] = assay: Fungicidal activity against Thanatephorus cucumeris assessed as rice sheath blight disease control at 2 ppm foliar application for 24 hr before inoculation by preventive manner
Thanatephorus cucumeris [48] = assay: Fungicidal activity against Thanatephorus cucumeris assessed as rice sheath blight disease control at 7.8 ppm foliar application for 24 hr before inoculation by preventive manner
Thanatephorus cucumeris [49] = assay: Fungicidal activity against Thanatephorus cucumeris assessed as rice sheath blight disease control at 31.3 ppm foliar application for 24 hr before inoculation by preventive manner
Thanatephorus cucumeris [50] = assay: Fungicidal activity against Thanatephorus cucumeris assessed as rice sheath blight disease control at 125 ppm foliar application for 24 hr before inoculation by preventive manner
Pyricularia oryzae [51] = assay: Fungicidal activity against Magnaporthe oryzae Cav. race 003 assessed as rice blast disease control at 2 ppm foliar application for 24 hr before inoculation by preventive manner
Pyricularia oryzae [52] = assay: Fungicidal activity against Magnaporthe oryzae Cav. race 003 assessed as rice blast disease control at 7.8 ppm foliar application for 24 hr before inoculation by preventive manner
Pyricularia oryzae [53] = assay: Fungicidal activity against Magnaporthe oryzae Cav. race 003 assessed as rice blast disease control at 31.3 ppm foliar application for 24 hr before inoculation by preventive manner
Pyricularia oryzae [54] = assay: Fungicidal activity against Magnaporthe oryzae Cav. race 003 assessed as rice blast disease control at 125 ppm foliar application for 24 hr before inoculation by preventive manner
Blumeria graminis [55] = assay: Fungicidal activity against Blumeria graminis f. sp. tritici assessed as wheat powdery mildew disease control at 0.5 ppm foliar application for 24 hr before inoculation by preventive manner
Blumeria graminis [56] = assay: Fungicidal activity against Blumeria graminis f. sp. tritici assessed as wheat powdery mildew disease control at 0.5 ppm foliar application for 24 hr after inoculation by curative manner

Measured: Activity

CCNC(=O)C(OC)c1cccc(COc2cc(C)ccc2C)c1 (stereo not drawn)
<90%: Pyricularia oryzae [1]
50%: Botrytis cinerea [2]
90%: Podosphaera fuliginea [3]

COC(=O)C(C)N(C(=O)Cc1ccccc1)c1c(C)cccc1C (stereo not drawn) [BENALAXYL]
80%: [4] | [18]
0%: [5] | [10] | [15]
10%: [16]
20%: [6] | [11] | [12]
40%: [7] | [17]
97%: [9] | [14]
70%: [8] | [13]

CO/N=C(/C(=O)OC)c1ccccc1COc1ccccc1C [KRESOXIM-METHYL]
80%: Podosphaera fuliginea [28] | Podosphaera fuliginea [35]
70%: Blumeria graminis [31] | Blumeria graminis [41] | Pyricularia oryzae [53]
97%: [11] | [12] | [13] | [14] | Podosphaera fuliginea [36] | Pyricularia oryzae [54]
100%: Podosphaera fuliginea [32]
90%: Podosphaera fuliginea [29] | Blumeria graminis [37] | Blumeria graminis [38] | Blumeria graminis [42]
50%: Botrytis cinerea [24] | Botrytis cinerea [25] | Botrytis cinerea [26] | Podosphaera fuliginea [27] | Blumeria graminis [30] | Blumeria graminis [40] | Thanatephorus cucumeris [46] | Thanatephorus cucumeris [50] | Pyricularia oryzae [52]
0%: [6] | [7] | [8] | Botrytis cinerea [19] | Botrytis cinerea [20] | [16] | [17] | [18] | Podosphaera fuliginea [33] | Thanatephorus cucumeris [43] | Thanatephorus cucumeris [44]
10%: Botrytis cinerea [21]
20%: Botrytis cinerea [23] | Podosphaera fuliginea [34]
30%: [4] | [9] | Botrytis cinerea [22] | Blumeria graminis [39] | Thanatephorus cucumeris [45] | Thanatephorus cucumeris [47] | Thanatephorus cucumeris [48] | Thanatephorus cucumeris [49] | Pyricularia oryzae [51]

CC(C)(C)C(=O)C(Oc1ccc(Cl)cc1)n1cncn1 (stereo not drawn) [TRIADIMEFON]
97%: Blumeria graminis [40] | Blumeria graminis [41]
50%: Blumeria graminis [56] | Blumeria graminis [39]
90%: Blumeria graminis [30] | Blumeria graminis [31]
30%: Blumeria graminis [55]

Source: ChEMBL document CHEMBL3046293, “Fungicidal Activities of -Methoxyphenylacetic Acid Derivatives” (2002)
